Results published in patent publication US6545029B2, “Phenylserine derivatives as integrin antagonists” (Bayer Aktiengesellschaft, priority 2000, dated 2003).

Molecular target: T1, αvβ3 from human placenta (Homo sapiens, UniProt P05106+P06756)
T1 construct: αvβ3 from human placenta; from tissue; host or cells: human placenta
Assay: αvβ3/echistatin binding inhibition (I125-echistatin, scintillation proximity beads)
Settings: inhibition of I125-echistatin binding to αvβ3; 1 hour at room temperature; determined in duplicate from concentration series
Method: The substances were tested for their ability to inhibit αvβ3/echistatin binding analogously to Kumar C. C., Nie H. M., Rogers G. P., Malkowski M., Maxwell E., Catino J. J. and Armstrong L. (Journal of Pharmacology and Experimental Therapeutics 283(2)(1997)843-853).
αvβ3 from human placenta (Smith J. W. and Cheresh, D. A. (1988), J. Biol. Chem. 263, 18726-18732) (1 mg/ml 50 mM tris HCl pH 7.4, 100 mM NaCl, 2 mM CaCl2, 1% and octylglucoside) was diluted with test buffer (50 mM tris-HCl pH 7.4, 100 mM NaCl, 1 mM CaCl2, 1 mM MgCl2, 1 mM MnCl2, 0.1% bovine serum albumin) and 55 μl each of this αvβ3 solution were added to the wells of a 96-well microtiter plate (about 0.1-0.3 μg of αvβ3 per well). 2 μl of the substances to be tested dissolved in DMSO were then added. 10 μl (40,000 cpm) of I^125-echistatin per well were then added and the mixture was incubated for 1 hour at room temperature with careful shaking. It was then treated with 100 μg of wheatgerm-coated yttrium silicate beads (Amersham, type RPNQ0011) in 25 μl of distilled water. After 1 hour at room temperature, the cpm values were measured in a scintillation counter. The Ki values were determined in duplicate from concentration series. The nonspecific binding was determined in the presence of 0.1 μM unlabeled echistatin or by addition of 5 mM EDTA to the binding mixture.

T1 sequence (P06756 31-889 limits assumed): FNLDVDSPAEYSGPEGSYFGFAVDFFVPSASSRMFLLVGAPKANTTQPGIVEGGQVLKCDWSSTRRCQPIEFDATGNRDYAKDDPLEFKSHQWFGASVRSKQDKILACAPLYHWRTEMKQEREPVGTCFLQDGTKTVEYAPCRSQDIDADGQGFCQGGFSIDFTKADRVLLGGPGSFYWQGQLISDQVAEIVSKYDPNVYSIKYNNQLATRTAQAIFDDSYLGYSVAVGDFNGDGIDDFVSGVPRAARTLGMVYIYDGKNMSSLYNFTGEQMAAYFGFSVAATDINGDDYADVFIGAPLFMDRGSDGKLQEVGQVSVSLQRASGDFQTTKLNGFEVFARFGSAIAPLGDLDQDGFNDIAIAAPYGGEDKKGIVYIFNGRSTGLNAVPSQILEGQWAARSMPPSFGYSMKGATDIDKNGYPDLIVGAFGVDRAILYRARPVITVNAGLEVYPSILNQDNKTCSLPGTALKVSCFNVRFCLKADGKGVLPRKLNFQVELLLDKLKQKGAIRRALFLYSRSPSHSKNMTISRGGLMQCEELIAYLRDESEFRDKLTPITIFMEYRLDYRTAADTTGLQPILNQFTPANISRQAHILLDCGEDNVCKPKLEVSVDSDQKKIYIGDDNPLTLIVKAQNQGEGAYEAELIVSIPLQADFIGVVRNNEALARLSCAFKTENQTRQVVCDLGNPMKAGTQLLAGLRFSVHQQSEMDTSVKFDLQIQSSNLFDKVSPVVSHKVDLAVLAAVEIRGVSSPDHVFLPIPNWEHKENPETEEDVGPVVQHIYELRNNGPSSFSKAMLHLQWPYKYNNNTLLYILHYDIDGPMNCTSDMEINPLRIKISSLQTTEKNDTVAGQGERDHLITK
T1 sequence (P06756 891-1048 partner limits assumed): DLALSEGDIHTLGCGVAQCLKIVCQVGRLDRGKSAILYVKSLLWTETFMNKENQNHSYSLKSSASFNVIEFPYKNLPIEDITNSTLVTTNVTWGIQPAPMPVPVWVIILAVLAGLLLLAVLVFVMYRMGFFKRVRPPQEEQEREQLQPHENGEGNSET
T1 sequence (P05106 27-788): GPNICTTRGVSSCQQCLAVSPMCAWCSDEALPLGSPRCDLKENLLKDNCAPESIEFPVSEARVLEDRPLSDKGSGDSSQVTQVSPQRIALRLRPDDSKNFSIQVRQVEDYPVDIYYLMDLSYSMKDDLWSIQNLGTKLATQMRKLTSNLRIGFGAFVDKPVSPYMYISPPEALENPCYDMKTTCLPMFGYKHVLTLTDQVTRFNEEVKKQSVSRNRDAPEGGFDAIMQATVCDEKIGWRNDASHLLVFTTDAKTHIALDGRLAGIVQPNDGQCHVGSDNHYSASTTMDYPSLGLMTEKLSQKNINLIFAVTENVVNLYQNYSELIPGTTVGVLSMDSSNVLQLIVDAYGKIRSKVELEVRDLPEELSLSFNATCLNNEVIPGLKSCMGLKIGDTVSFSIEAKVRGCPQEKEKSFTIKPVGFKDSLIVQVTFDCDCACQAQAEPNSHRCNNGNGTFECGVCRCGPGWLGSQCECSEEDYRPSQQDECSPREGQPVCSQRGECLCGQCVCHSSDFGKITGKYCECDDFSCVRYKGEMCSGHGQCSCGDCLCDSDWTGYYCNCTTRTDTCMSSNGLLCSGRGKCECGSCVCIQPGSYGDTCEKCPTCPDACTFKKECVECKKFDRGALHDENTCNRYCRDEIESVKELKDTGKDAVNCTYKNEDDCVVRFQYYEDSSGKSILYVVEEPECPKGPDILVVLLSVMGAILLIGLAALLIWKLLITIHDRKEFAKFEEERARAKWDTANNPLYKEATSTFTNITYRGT

Ki: 4 nM
SMILES: CCCNC(=O)Nc1cccc(-c2ccc(OC[C@H](NS(=O)(=O)c3c(C)cc(C)cc3C)C(=O)O)cc2)c1 [Example 20, N-(Mesitylsulfonyl)-O-(3′-{[(propylamino)carbonyl]amino}-1,1′-biphenyl-4-yl)-L-serine]
